Results as given in the supplement of paper PMC11208160.

assay: recombinant UMI read abundance after kanamycin selection (control-corrected) (log10(CPM+1)); higher = more efficient recombination; extreme values may be limits of the assay; sequences stand for … in AGTGCAGAGAAAATCGGCCAGTTTTCTCTGCCTGCAGTCCGCATGCCGTGGGACCCCTTGGGTTCTAACCTGTTGCCTAGATTTATGCAGCGGACTGCCTTTCTCCCAAAGTGATAAACCGG…AGGTTGGTTTCACT; site = the 11-nt donor
Method in brief: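 Pooled Escherichia coli screen of donor and donor-binding-loop pairs for the IS621 bridge recombinase. Each pair sits with a 12-nt UMI on a plasmid carrying a promoterless kanamycin gene. The library was co-electroporated with a target plasmid encoding a fixed target and T7-inducible recombinase, then plated with IPTG (0.07 mM) plus kanamycin, or unselected, each in two replicates. Recombinant UMIs were PCR-amplified across the donor–target junction and sequenced. Counts became CPM, averaged over replicates, scaled by control-derived factors and reported as log10(CPM+1).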
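Further: IS621 bridge recombinase in Escherichia coli cells against a fixed T5 target plasmid.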

Sequence | recombinant UMI read abundance (log10)
TAGAGTCCATGGACCGGTTTTCCCGGTAATCCGTATTTGTA (site TAAAGTCCTTA) | 0.546
TAGAGTCCATGGACCGGTTTTCCCGGTAATCCGTATTTGTA (site TACAGTCCTTA) | 0.159
TAGAGTCCATGGACCGGTTTTCCCGGTAATCCGTATTTGTA (site TAGAGTCCTTA) | 1.37
TAGAGTCCATGGACCGGTTTTCCCGGTAATCCGTATTTGTA (site TATAGTCCTTA) | 0.132
TAGATGACATGGACCGGTTTTCCCGGTAATCCGTATTTGCT (site TAGATGACTAG) | 2.49
TAGATTACATGGACCGGTTTTCCCGGTAATCCGTATTTGCA (site TAGAATACTTG) | 0.304
TAGATTACATGGACCGGTTTTCCCGGTAATCCGTATTTGCA (site TAGACTACTTG) | 0.98
TAGATTACATGGACCGGTTTTCCCGGTAATCCGTATTTGCA (site TAGAGTACTTG) | 0.616
TAGATTACATGGACCGGTTTTCCCGGTAATCCGTATTTGCA (site TAGATTACTTG) | 1.52
TAGCCCACATGGACCGGTTTTCCCGGTAATCCGTATTTGTT (site TAGCCCACTAA) | 0.409
TAGCCGGCATGGACCGGTTTTCCCGGTAATCCGTATTTGTA (site TAGCCGGCTTA) | 0.599
TAGCTGGCATGGACCGGTTTTCCCGGTAATCCGTATTTGAA (site TAGCTAGCTTT) | 0.588
TAGCTGGCATGGACCGGTTTTCCCGGTAATCCGTATTTGAA (site TAGCTCGCTTT) | 0.0161
TAGCTGGCATGGACCGGTTTTCCCGGTAATCCGTATTTGAA (site TAGCTGGCTTT) | 0.732
TAGCTGGCATGGACCGGTTTTCCCGGTAATCCGTATTTGAA (site TAGCTTGCTTT) | 0
TAGCTTACATGGACCGGTTTTCCCGGTAATCCGTATTTGTC (site TAGCTTACTGA) | 1.56
TAGCTTCCATGGACCGGTTTTCCCGGTAATCCGTATTTGGG (site TAGCTTCCTCC) | 0.0588
TAGCTTGCATGGACCGGTTTTCCCGGTAATCCGTATTTGAA (site TAGCTAGCTTT) | 0.0193
TAGCTTGCATGGACCGGTTTTCCCGGTAATCCGTATTTGAA (site TAGCTCGCTTT) | 0.0167
TAGCTTGCATGGACCGGTTTTCCCGGTAATCCGTATTTGAA (site TAGCTGGCTTT) | 0.02
TAGCTTGCATGGACCGGTTTTCCCGGTAATCCGTATTTGAA (site TAGCTTGCTTT) | 1.4
TAGCTTTCATGGACCGGTTTTCCCGGTAATCCGTATTTGGT (site TAGCATTCTAC) | 0.374
TAGCTTTCATGGACCGGTTTTCCCGGTAATCCGTATTTGGT (site TAGCCTTCTAC) | 0.157
TAGCTTTCATGGACCGGTTTTCCCGGTAATCCGTATTTGGT (site TAGCGTTCTAC) | 0
TAGCTTTCATGGACCGGTTTTCCCGGTAATCCGTATTTGGT (site TAGCTTTCTAC) | 0.807
TAGGAAACATGGACCGGTTTTCCCGGTAATCCGTATTTGCG (site TAGGAAACTCG) | 2.39

Sequence | recombinant UMI read abundance (log10)
TAGGAAACATGGACCGGTTTTCCCGGTAATCCGTATTTGCG (site TAGGAACCTCG) | 0
TAGGAAACATGGACCGGTTTTCCCGGTAATCCGTATTTGCG (site TAGGAAGCTCG) | 2.11
TAGGAAACATGGACCGGTTTTCCCGGTAATCCGTATTTGCG (site TAGGAATCTCG) | 1.75
TAGGCTGCATGGACCGGTTTTCCCGGTAATCCGTATTTGGT (site TAGGCTGCTAC) | 0.811
TAGGGATCATGGACCGGTTTTCCCGGTAATCCGTATTTGCG (site TAGGAATCTCG) | 2.07
TAGGGATCATGGACCGGTTTTCCCGGTAATCCGTATTTGCG (site TAGGCATCTCG) | 0.735
TAGGGATCATGGACCGGTTTTCCCGGTAATCCGTATTTGCG (site TAGGGATCTCG) | 2.78
TAGGGATCATGGACCGGTTTTCCCGGTAATCCGTATTTGCG (site TAGGTATCTCG) | 1.27
TAGGGATCATGGACCGGTTTTCCCGGTAATCCGTATTTGCT (site TAGGGATCTAG) | 2.31
TAGGGGACATGGACCGGTTTTCCCGGTAATCCGTATTTGTT (site TAGGGGACTAA) | 1.75
TAGGGTGCATGGACCGGTTTTCCCGGTAATCCGTATTTGAC (site TAGGGTGCTGT) | 2.6
TAGGGTGCATGGACCGGTTTTCCCGGTAATCCGTATTTGCC (site TAGGGTGCTGG) | 2.58
TAGGTTACATGGACCGGTTTTCCCGGTAATCCGTATTTGAT (site TAGGTTACTAT) | 1.79
TAGGTTGCATGGACCGGTTTTCCCGGTAATCCGTATTTGGT (site TAGGTTGCTAC) | 1.27
TAGTCTTCATGGACCGGTTTTCCCGGTAATCCGTATTTGGT (site TAGACTTCTAC) | 0.017
TAGTCTTCATGGACCGGTTTTCCCGGTAATCCGTATTTGGT (site TAGCCTTCTAC) | 0.322
TAGTCTTCATGGACCGGTTTTCCCGGTAATCCGTATTTGGT (site TAGGCTTCTAC) | 0.012
TAGTCTTCATGGACCGGTTTTCCCGGTAATCCGTATTTGGT (site TAGTCTTCTAC) | 0.376
TAGTGTACATGGACCGGTTTTCCCGGTAATCCGTATTTGGT (site TAGTGTACTAC) | 0.534
TAGTTGACATGGACCGGTTTTCCCGGTAATCCGTATTTGCT (site TAATTGACTAG) | 1.17
TAGTTGACATGGACCGGTTTTCCCGGTAATCCGTATTTGCT (site TACTTGACTAG) | 0.55
TAGTTGACATGGACCGGTTTTCCCGGTAATCCGTATTTGCT (site TAGTTGACTAG) | 2.13
TAGTTGACATGGACCGGTTTTCCCGGTAATCCGTATTTGCT (site TATTTGACTAG) | 0.0101
TATAAGACATGGACCGGTTTTCCCGGTAATCCGTATTTGAC (site TATAAGACTGT) | 2.01
TATAATTCATGGACCGGTTTTCCCGGTAATCCGTATTTGAC (site TATAATTCTGT) | 0.209
TATAGCCCATGGACCGGTTTTCCCGGTAATCCGTATTTGTA (site TATAGCCCTTA) | 0.181
